The source of these data is paper PMC6222843, “Reversal Effect of Oxypeucedanin on P-glycoprotein-mediated Drug Transport” (Molecules : A Journal of Synthetic Chemistry and Natural …, 2018).

Where a name gives a salt, the structure may show the parent alone. Read-outs that look alike come from different tables or passages of the source.

Data set [1] has as its target recombinant human P-gp membranes (Homo sapiens, UniProt P08183). Conditions: compared to basal P-gp ATPase activity.
Procedure: P-gp ATPase activity was measured using P-gp-Glo™ assay systems kit according to the manufacturer’s instructions, the method detail of which was also described in our previous study [29]. […] After 40 min, ATP detection reagent was added, respectively. The unconsumed ATP detection reagent reacted with luciferase at room temperature for 20 min and the chemiluminescence intensity was detected. The average relative light units (RLU) was calculated as follows:RLUNa3VO4 − RLUNT = ΔRLUbasal(1) RLUNa3VO4 − RLUTC = ΔRLUTC(2)
ΔRLUbasal, the decrease in luminescence of the untreated group (RLUNT) compared to the Na3VO4 group (RLUNa3VO4), represents the basal P-gp ATPase activity. ΔRLUTC, the decrease in luminescence of the test compound-treated group (RLUTC) compared to the Na3VO4 group (RLUNa3VO4), indicates the P-gp ATPase activity in the presence of the test compound. The decrease in luminescence reflect ATP consumption by P-gp and is proportional to P-gp activity.
Data set [2] relates to MDCK-MDR1 cells. The experiment in a line: MTT assay, viability of MDCK-MDR1 cells. Type of data set: cell-based, canine. As to the method: The effects of OPD and VCR on the viability of MDCK-MDR1 cells were observed by a MTT assay.
MDCK-MDR1 Cells were obtained from Shanghai Zhongya Institute of Biological Genes Institute (CinoAsia Co., Ltd., Shanghai, China). Cells were cultured as previously described. In brief, cells were cultured in high glucose DMEM medium supplemented with 10% fetal bovine serum (FBS), 1% non-essential amino acids, 1% L-glutamine, and a penicillin-streptomycin double antibiotic solution. Cells were incubated at 37 °C with 5% CO2 and cell medium was changed every other day.
In general terms: Formazan colour is commonly taken as a measure of viable cells.

For data set [3], the system named is MDR1. Briefly: RT-qPCR of MDR1 mRNA expression in MDCK-MDR1 cells. Type of data set: cell-based, human. The note with it: OPD 3.5, 17.5 and 70 μmol/L for 48 h, compared to untreated cells. As to the method: MDCK-MDR1 cells were cultured for 5 days and treated with different concentrations of OPD (3.5, 17.5 and 70 μmol/L) for 48 h to measure MDR1 gene expression level. The total celluar RNA was extracted by the RNA easy Total RNA mini kit and reverse transcribed to cDNA with reverse transcription kit according to the manufacturer’s protocol. PCR primer design and synthesis were performed by the primer design software provided by Applied Biosystems. Primer sequences for MDR1 and hRpIPIv-F (loading internal control) genes are as follows: human hRpIP1v-F forward, 5′-[…]-3′; human hRpIP1v-F reverse, 5′-[…]-3′; human MDR1 forward, 5′-[…]-3′, human MDR1 reverse, 5′-[…]-3′. PCR amplification was performed using Power SYBR Green PCR Mix according to the manufacturer’s protocol (Life Technologies, Carlsbad, CA, USA).

Data set [4] has as its system P-gp. Briefly: Western blotting of P-gp protein expression in MDCK-MDR1 cells. It is filed as cell-based, canine. The note with it: OPD 17.5 and 70 μmol/L for 48 h, in comparison with control group. As to the method:
MDCK-MDR1 cells treated with different concentrations of OPD (3.5, 17.5 and 70 μmol/L) for 48 h were subject to western blotting for determination of P-gp protein level. Cells were washed 3 times with PBS. Total protein was extracted and the protein concentrations were measured according to the manufacturer’s instructions. Cell protein were denatured at 70 °C for 10 min. Protein samples with equivalent amounts were loaded and separated by 10% SDS-polyacrylamide gel electrophoresis and transferred to a polyvinylidene difluoride membranes. Membranes were blocked in 5% powdered non-fat milk solution for 4 h at room temperature and incubated with anti-P-gp primary antibody (GADPH was used as a loading control) overnight at 4 °C followed by an goat anti-mouse IgG secondary antibody (1:5000 dilutions) for 4 h at room temperature. Membranes were incubated with an ECL chromogenic solution for 4 min in the dark. The target protein bands were detected and protein intensity was calculated by a gel imaging system (Beta 3, Bio-Rad, Irvine, CA, USA).
In general terms: A western blot detects proteins with antibodies after separation by electrophoresis.

The nature of data set [5]: Transport of VCR across MDCK-MDR1 cell monolayer (A→B). It is filed as in vitro ADME, canine. Conditions: dog, MDCK-MDR1, pH 7.4, VCR 264.46 μmol/L alone, 37 °C, n = 3.
Procedure: Briefly, cell monolayers were pre-incubated in Hank’s buffered salt solution (HBSS, pH 7.4) for 30 min at 37 °C. Trans-epithelial electric resistance (TEER) values of the MDCK-MDR1 cell monolayer ranged from 500 to 800 Ω·cm^2. All drugs were dissolved in DMSO and diluted in HBSS. The final concentration of DMSO is less than 1%. […] After treatments, cells were incubated at 37 °C for 2 h. After 2 h, 500 µL aliquots were taken from the basal side, mixed with 500 µL methanol, vortexed 2 min and then centrifuged for 10 min at 16,000 rpm. The supernatants were collected to measure the concentrations of compounds by high performance liquid-chromatography/mass spectroscopy (LC-MS/MS). Apparent permeability (Papp) values are calculated from the relationship: Papp=dQ/dt/A×C0 where dQ/dt is the cumulative transport rate of the compound on the receiving side (µg/s), A is the surface area of the cell monolayer (cm^2), and C0 is the initial concentration in the donor compartment (µg/mL).
Data set [6] is described as follows: Plasma pharmacokinetics of DTX in rats with or without OPD (LC-MS/MS). Conditions: male, Sprague-Dawley, rat, po, 50 mg/kg.
Procedure: Ten 8-week-old male Sprague-Dawley rats were randomly divided into the following two groups (5 rats in each group). Group 1: rats were administered a single oral dose of 50 mg/kg of DTX dissolved in 0.5% CMC-Na. […] Blood samples were centrifuged for 10 min at approximately 4000 rpm. 100 µL of plasma was collected from the upper layer, and mixed with 20 µL of taxol internal standard solution for 30 s followed by 500 µL of methanol for 3 min, then centrifuged at 15,000 rpm for 10 min. The supernatant was separated and collected. 5 μL of the supernatant was injected into the LC-MS/MS system for detection and quantification.
Separation was performed on a ZORBAX Extend-C18 (2.1 × 100 mm, 3.5 µm, Agilent, Palo Alto, CA, USA). The column oven was maintained at 25 °C.

By Papp A→B is commonly meant the apparent permeability from the apical to the basolateral side of a cell layer. What is called AUC(0-inf) is total exposure, with the tail of the curve extrapolated. The term AUC(0-t) denotes the area under the concentration-time curve up to a stated or last time point. Higher therefore signals more exposure. The term Cmax denotes the highest concentration seen after dosing. In general, MRT inf refers to a mean duration of stay, worked out from the concentration-time curve. In general, MRT last refers to the average time that molecules of a dose stay in the body. What is called half-life is how long it takes for the measured level to halve.

recombinant human P-gp membranes, sequence (P08183 whole entry): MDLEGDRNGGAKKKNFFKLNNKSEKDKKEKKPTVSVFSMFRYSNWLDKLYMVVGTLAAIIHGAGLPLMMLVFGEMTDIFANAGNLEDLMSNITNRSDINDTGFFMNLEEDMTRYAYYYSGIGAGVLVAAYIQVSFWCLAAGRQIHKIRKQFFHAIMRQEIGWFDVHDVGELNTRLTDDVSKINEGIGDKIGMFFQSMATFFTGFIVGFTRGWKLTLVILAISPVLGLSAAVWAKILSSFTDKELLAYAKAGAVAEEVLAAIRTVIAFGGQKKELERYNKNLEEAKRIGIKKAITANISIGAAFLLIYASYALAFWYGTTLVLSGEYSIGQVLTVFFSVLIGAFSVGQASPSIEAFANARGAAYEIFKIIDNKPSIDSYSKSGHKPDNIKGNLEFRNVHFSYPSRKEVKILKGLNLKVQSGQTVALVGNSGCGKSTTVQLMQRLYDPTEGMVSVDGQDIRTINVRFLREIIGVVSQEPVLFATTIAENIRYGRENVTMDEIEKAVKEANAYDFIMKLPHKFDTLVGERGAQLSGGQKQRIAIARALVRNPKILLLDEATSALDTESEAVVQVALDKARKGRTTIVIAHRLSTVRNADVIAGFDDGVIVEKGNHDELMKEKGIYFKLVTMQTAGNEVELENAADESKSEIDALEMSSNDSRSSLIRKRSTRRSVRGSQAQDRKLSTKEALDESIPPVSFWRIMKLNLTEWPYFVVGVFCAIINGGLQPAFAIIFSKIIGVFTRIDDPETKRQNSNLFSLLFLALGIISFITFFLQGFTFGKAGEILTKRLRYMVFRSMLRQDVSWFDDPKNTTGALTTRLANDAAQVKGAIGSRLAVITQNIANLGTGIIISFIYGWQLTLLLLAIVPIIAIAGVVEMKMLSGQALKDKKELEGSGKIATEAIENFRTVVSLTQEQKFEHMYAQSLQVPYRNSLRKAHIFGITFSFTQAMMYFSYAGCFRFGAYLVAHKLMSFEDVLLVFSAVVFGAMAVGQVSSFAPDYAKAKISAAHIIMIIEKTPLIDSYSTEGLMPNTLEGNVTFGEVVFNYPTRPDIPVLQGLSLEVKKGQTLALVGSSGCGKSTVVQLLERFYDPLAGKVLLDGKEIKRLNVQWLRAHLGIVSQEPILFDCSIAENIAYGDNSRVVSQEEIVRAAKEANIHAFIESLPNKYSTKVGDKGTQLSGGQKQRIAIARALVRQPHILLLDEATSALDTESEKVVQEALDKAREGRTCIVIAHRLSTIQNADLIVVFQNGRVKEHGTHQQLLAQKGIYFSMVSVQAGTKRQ

Take `CC1(C)O[C@H]1COc1c2ccoc2cc2oc(=O)ccc12` [OPD, Oxypeucedanin]: the “increase in P-gp ATPase activity” value in data set [1] (OPD 3.5 μmol/L) was 0.55 fold; in data set [1] (OPD 17.5 μmol/L), 0.31 fold; in data set [1] (OPD 70 μmol/L) it was 0.50 fold. The “cytotoxicity (viability of MDCK-MDR1 cells, MTT assay)” value in data set [2] (OPD 3.82, 19.08, 76.30 μmol/L) is listed as “no obvious cytotoxicity”. Besides, the “mRNA expression of MDR1” value in data set [3] is “significantly downregulated”. In data set [4], the P-gp protein expression result was “obvious reduction”.
Turning to `CC[C@]1(O)C[C@H]2CN(CCc3c([nH]c4ccccc34)[C@@](C(=O)OC)(c3cc4c(cc3OC)N(C=O)[C@H]3[C@@](O)(C(=O)OC)[C@H](OC(C)=O)[C@]5(CC)C=CCN6CC[C@]43[C@@H]65)C2)C1` [VCR, Vincristine sulfate], in data set [2] (VCR 264.46 μmol/L), the “cytotoxicity (viability of MDCK-MDR1 cells, MTT assay)” value was “no obvious cytotoxicity”. The compound also registered a Papp A→B at 2 h, 264.46 μmol/L in data set [5] of 0.37 ± 0.04 ×10⁻⁶ cm/s.
With `CC(=O)O[C@@]12CO[C@@H]1C[C@H](O)[C@@]1(C)C(=O)[C@H](O)C3=C(C)[C@@H](OC(=O)[C@H](O)[C@@H](NC(=O)OC(C)(C)C)c4ccccc4)C[C@@](O)([C@@H](OC(=O)c4ccccc4)[C@H]21)C3(C)C` [DTX, Docetaxel], in data set [6], the AUC(0-inf) was determined as 306 ± 21.1 ng·h/mL, the AUC(0-t) was determined as 276 ± 19.1 ng·h/mL, the Cmax turned out to be 118 ± 10.9 ng/mL and the MRT inf was 4.29 ± 0.98 h. Further, in data set [6], the MRT last was 2.96 ± 0.22 h and the half-life is 4.13 ± 1.08 h.
